SMILES strings stand for the structures. Structures can show the parent of a compound that is named as a salt.

Assay [1] concerns the target T1, EGFR L858R/T790M (H1975-clone #36, homozygous) (Homo sapiens, UniProt P00533, L858R/T790M).
T1 construct: designed to specifically target WT EGFR but preserve the L858R/T790M copy; host or cells: H1975-clone #36
The assay can be described thus: EGFR degradation HTRF assay, H1975-clone #36 cells. The settings on record: H1975 #36, 16h treatment; for Dmax: NCI-H1975, maximum percentage of degradation. In kind it is cell-based. A digest of the protocol:
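Eight-point, 5-fold series starting at 10 uM (0.2% DMSO) applied for 16 h, 37 °C, to a WT-EGFR-knockout H1975 clone carrying only L858R/T790M. Lysates read by HTRF overnight. Degradation percentage relative to DMSO control fitted for DC50, with Dmax as maximum degradation.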
In general terms: Time-resolved FRET reads energy transfer from a long-lived donor to a nearby acceptor.

Assay [2] deals with T2, EGFR (HCC827 cells) (Homo sapiens, UniProt P00533, DEL746-750).
T2 construct: endogenous in cells; host or cells: HCC827
The assay can be described thus: EGFR degradation HTRF assay, HCC827 cells. The class given is cell-based. The conditions noted are these: HCC827, 16h treatment; for Dmax: maximum percentage of degradation. The essentials:
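BaF3 (WT, Del19/T790M/C797S) and HCC827 cells exposed 16 h at 37 °C, 5% CO2 to compounds in 0.2% DMSO medium, 8 doses from 10 uM top, 5-fold steps. Lysates read by HTRF (665/620 nm); degradation % vs DMSO control, DC50 from four-parameter fit, Dmax as maximal degradation.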

T2 sequence (P00533 with tags, fused parts or gaps DEL746-750): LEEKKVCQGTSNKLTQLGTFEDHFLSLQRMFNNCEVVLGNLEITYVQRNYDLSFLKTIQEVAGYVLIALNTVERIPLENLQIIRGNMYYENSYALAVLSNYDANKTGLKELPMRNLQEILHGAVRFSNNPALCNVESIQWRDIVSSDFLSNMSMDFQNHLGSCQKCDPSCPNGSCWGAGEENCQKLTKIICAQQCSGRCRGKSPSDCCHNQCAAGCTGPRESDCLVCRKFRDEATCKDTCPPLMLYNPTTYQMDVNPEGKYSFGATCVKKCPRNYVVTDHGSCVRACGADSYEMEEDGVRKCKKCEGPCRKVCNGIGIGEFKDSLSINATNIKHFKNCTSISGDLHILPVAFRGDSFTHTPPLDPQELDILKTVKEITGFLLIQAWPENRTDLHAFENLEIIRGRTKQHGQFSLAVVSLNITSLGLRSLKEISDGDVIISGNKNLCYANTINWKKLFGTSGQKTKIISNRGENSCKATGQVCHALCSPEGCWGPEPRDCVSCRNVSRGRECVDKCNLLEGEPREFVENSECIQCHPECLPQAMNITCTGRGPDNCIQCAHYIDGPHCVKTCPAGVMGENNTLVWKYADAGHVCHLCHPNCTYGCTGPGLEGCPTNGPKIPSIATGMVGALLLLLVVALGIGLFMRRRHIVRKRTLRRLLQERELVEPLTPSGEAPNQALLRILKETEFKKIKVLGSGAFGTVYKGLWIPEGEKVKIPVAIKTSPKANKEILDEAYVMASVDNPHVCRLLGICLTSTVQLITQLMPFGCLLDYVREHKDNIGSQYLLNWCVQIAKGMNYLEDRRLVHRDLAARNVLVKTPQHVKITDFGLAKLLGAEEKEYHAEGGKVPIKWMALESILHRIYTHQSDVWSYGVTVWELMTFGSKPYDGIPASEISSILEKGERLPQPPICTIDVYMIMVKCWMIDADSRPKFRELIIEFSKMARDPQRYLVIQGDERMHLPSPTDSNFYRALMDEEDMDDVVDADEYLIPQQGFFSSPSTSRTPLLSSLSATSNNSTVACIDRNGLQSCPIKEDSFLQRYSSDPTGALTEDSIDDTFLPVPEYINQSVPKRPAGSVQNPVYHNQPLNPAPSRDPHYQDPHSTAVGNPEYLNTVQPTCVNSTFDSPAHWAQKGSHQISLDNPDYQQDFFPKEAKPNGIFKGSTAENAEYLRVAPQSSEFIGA
T1 sequence (P00533 25-1210 T790M/L858R): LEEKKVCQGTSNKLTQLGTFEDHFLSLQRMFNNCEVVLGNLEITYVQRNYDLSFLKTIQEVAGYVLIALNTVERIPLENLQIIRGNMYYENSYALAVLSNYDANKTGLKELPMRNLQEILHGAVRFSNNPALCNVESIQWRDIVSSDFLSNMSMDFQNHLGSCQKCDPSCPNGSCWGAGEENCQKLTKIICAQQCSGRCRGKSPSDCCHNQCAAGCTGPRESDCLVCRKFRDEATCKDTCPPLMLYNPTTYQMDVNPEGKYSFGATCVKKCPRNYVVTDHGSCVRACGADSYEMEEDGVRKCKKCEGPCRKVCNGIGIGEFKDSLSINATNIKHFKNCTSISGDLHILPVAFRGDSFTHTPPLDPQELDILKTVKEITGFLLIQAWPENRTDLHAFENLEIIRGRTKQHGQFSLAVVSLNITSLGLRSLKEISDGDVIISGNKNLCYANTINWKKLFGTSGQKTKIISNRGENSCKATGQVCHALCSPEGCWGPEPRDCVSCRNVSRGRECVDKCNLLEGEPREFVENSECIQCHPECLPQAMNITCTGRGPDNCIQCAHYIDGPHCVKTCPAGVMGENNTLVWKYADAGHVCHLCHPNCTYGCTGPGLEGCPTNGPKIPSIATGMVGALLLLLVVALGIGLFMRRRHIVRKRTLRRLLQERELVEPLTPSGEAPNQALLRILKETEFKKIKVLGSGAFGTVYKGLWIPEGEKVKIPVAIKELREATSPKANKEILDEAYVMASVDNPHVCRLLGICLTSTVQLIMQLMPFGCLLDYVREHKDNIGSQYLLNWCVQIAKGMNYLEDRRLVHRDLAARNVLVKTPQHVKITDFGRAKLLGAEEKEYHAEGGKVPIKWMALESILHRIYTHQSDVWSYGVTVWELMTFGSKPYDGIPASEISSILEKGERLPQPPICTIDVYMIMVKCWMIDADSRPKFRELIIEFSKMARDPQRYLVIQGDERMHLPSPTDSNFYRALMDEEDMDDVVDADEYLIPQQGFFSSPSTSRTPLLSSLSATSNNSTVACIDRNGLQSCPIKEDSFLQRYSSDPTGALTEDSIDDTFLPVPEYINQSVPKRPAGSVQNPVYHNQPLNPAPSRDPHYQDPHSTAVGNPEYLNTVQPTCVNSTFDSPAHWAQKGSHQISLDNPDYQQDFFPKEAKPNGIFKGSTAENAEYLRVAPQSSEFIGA

As usually defined, the DC50 is the concentration giving 50% degradation. The Dmax is the greatest extent of degradation seen. Consider `COc1cc(N2CCC(N3CCN(CCc4ccc(C5CCC(=O)NC5=O)cc4)CC3)CC2)ccc1Nc1ncc(Cl)c(Nc2ccccc2NS(C)(=O)=O)n1` (centres unmarked) [Example 138, N-(2-((5-chloro-2-((4-(4-(4-(4-(2,6-dioxopiperidin-3-yl)phenethyl)piperazin-1-yl)piperidin-1-yl)-2-methoxyphenyl)amino)pyrimidin-4-yl)amino)phenyl)methanesulfonamide], for which, in assay [1], half-maximal degradation (DC50) was put at 3.58 nM and the Dmax came to 87%. In assay [2], this compound returned a DC50 of 15.1 nM and a Dmax of 82.2%.

For the compound `COc1cc(N2CCC(N3CCN(CCCOc4ccc(OC5CCC(=O)NC5=O)cc4)CC3)CC2)ccc1Nc1ncc(Cl)c(Nc2ccccc2N(C)S(C)(=O)=O)n1` (centres unmarked) [Example 127, N-(2-((5-chloro-2-((4-(4-(4-(3-(4-((2,6-dioxopiperidin-3 yl)oxy)phenoxy)propyl)piperazin-1-yl)piperidin-1-yl)-2-methoxyphenyl)amino)pyrimidin-4-yl)amino)phenyl)-N-methylmethanesulfonamide], the DC50 in assay [1] stood at 11.9 nM; in assay [2], 35.9 nM. Besides, the Dmax was 64.7% in assay [1] and 71.4% in assay [2].

With `COc1cc(N2CCN(CCCC(=O)N[C@H](C(=O)N3C[C@H](O)C[C@H]3C(=O)N[C@@H](C)c3ccc(-c4scnc4C)cc3)C(C)(C)C)CC2)c(C)cc1Nc1ncc(Br)c(Nc2ccc3nccnc3c2P(C)(C)=O)n1` [Example 102, (2S,4R)-1-((S)-2-(4-(4-(4-((5-bromo-4-((5-(dimethylphosphoryl)quinoxalin-6-yl)amino)pyrimidin-2-yl)amino)-5-methoxy-2-methylphenyl)piperazin-1-yl)butanamido)-3,3-dimethylbutanoyl)-4-hydroxy-N—((S)-1-(4-(4-methylthiazol-5-yl)phenyl)ethyl)pyrrolidine-2-carboxamide], in assay [1], the 50% degradation concentration (DC50) was found to be 81.7 nM and the Dmax was 65.1%. In assay [2], this compound yielded a DC50 of 70.1 nM and a Dmax of 75.9%.

In assay [1], `COc1cc(N2CCN(CC3CCN(c4ccc(C5CCC(=O)NC5=O)cc4)CC3)CC2)ccc1Nc1ncc(Cl)c(Nc2ccccc2P(C)(C)=O)n1` (centres unmarked) [Example 105, 3-(4-(4-((4-(4-((5-chloro-4-((2-(dimethylphosphoryl)phenyl)amino)pyrimidin-2-yl)amino)-3-methoxyphenyl)piperazin-1-yl)methyl)piperidin-1-yl)phenyl)piperidine-2,6-dione] returned a DC50 of 12.2 nM and a Dmax of 83.7%. In addition, in assay [2], the DC50 was 16 nM and the Dmax worked out at 67.2%.

Take `CCc1cc(Nc2ncc(Br)c(Nc3ccc4nccnc4c3P(C)(C)=O)n2)c(OC)cc1N1CCC(N2CCN(CCOc3ccc(C4CCC(=O)NC4=O)cc3)CC2)CC1` (centres unmarked) [Example 17, 3-(4-(2-(4-(1-(4-((5-bromo-4-((5-(dimethylphosphoryl)quinoxalin-6-yl)amino)pyrimidin-2-yl)amino)-2-ethyl-5-methoxyphenyl)piperidin-4-yl)piperazin-1-yl)ethoxy)phenyl)piperidine-2,6-dione formate]: the DC50 is over 10000 nM in assay [1] and 25.4 nM in assay [2]. Also, the Dmax came to 6.77% in assay [1] and 73.3% in assay [2].

Take `COc1cc(N2CCC(N3CCN(CCc4ccc(C5CCC(=O)NC5=O)cc4)CC3)CC2)ccc1Nc1ncc(Cl)c(Nc2ccccc2N(C)S(C)(=O)=O)n1` (centres unmarked) [Example 119, N-(2-((5-chloro-2-((4-(4-(4-(4-(2,6-dioxopiperidin-3-yl)phenethyl)piperazin-1-yl)piperidin-1-yl)-2-methoxyphenyl)amino)pyrimidin-4-yl)amino)phenyl)-N-methylmethane sulfonamide]: in assay [1], the DC50 is 9.02 nM and the Dmax came out at 83.9%. In assay [2], this compound returned a DC50 of 12.8 nM and a Dmax of 85.3%.

As to `CCc1cc(Nc2ncc(Br)c(Nc3ccc4nccnc4c3P(C)(C)=O)n2)c(OC)cc1N1CCC(N2CCN(CCC3CCN(c4ccc(N5CCC(=O)NC5=O)cc4)CC3)CC2)CC1` [Example 55, 1-(4-(4-(2-(4-(1-(4-((5-bromo-4-((5-(dimethylphosphoryl)quinoxalin-6-yl)amino)pyrimidin-2-yl)amino)-2-ethyl-5-methoxyphenyl)piperidin-4-yl)piperazin-1-yl)ethyl)piperidin-1-yl)phenyl)dihydropyrimidine-2,4(1H,3H)-dione], in assay [1], the DC50 was over 10000 nM and the Dmax came to 18.7%. Also, in assay [2], the DC50 was found to be 313 nM and the Dmax turned out to be 56.2%.

In assay [1], `COc1cc(N2CCN(C3CN(C(=O)c4cnc(C(=O)Nc5ccc(C6CCC(=O)NC6=O)cc5)cn4)C3)CC2)c(C)cc1Nc1ncc(Br)c(Nc2ccc3nccnc3c2P(C)(C)=O)n1` (centres unmarked) [Example 100, 5-(3-(4-(4-((5-bromo-4-((5-(dimethylphosphoryl)quinoxalin-6-yl)amino)pyrimidin-2-yl)amino)-5-methoxy-2-methylphenyl)piperazin-1-yl)azetidine-1-carbonyl)-N-(4-(2,6-dioxopiperidin-3-yl)phenyl)pyrazine-2-carboxamide] registered a DC50 of 8.7 nM and a Dmax of 62.6%. Besides, in assay [2], half-maximal degradation (DC50) was put at 6.34 nM and the Dmax was 76.9%.

Regarding `COc1cc(N2CCC(N(C)CC3CCN(c4ccc(N5CCC(=O)NC5=O)cc4F)CC3)CC2)c(C)cc1Nc1ncc(Br)c(Nc2ccc3nccnc3c2P(C)(C)=O)n1` [Example 82, 1-(4-(4-(((1-(4-((5-bromo-4-((5-(dimethylphosphoryl)quinoxalin-6-yl)amino)pyrimidin-2-yl)amino)-5-methoxy-2-methylphenyl)piperidin-4-yl)(methyl)amino)methyl)piperidin-1-yl)-3-fluorophenyl)dihydropyrimidine-2,4(1H,3H)-dione], the DC50 in assay [1] is over 10000 nM; in assay [2], 14.7 nM. The Dmax amounted to 12.2% in assay [1] and 74% in assay [2].

In assay [1], `COc1cc(N2CCN(CC3CCN(c4ccc(N5CCC(=O)NC5=O)cc4)CC3)CC2)ccc1Nc1ncc(Cl)c(Nc2ccccc2P(C)(C)=O)n1` [Example 115, 1-(4-(4-((4-(4-((5-chloro-4-((2-(dimethylphosphoryl)phenyl)amino)pyrimidin-2-yl)amino)-3-methoxyphenyl)piperazin-1-yl)methyl)piperidin-1-yl)phenyl)dihydropyrimidine-2,4(1H,3H)-dione] showed a DC50 of 641 nM and a Dmax of 74.7%. For the same compound, in assay [2], half-maximal degradation (DC50) was put at 103 nM and the Dmax is 83.4%.

In assay [1], `COc1cc(N2CCC(N(C)CC3CCN(c4ccc(C5CCC(=O)NC5=O)cc4)CC3)CC2)c(C)cc1Nc1ncc(Br)c(Nc2ccc3nccnc3c2P(C)(C)=O)n1` (centres unmarked) [Example 77, 3-(4-(4-(((1-(4-((5-bromo-4-((5-(dimethylphosphoryl)quinoxalin-6-yl)amino)pyrimidin-2-yl)amino)-5-methoxy-2-methylphenyl)piperidin-4-yl)(methyl)amino)methyl)piperidin-1-yl)phenyl)piperidine-2,6-dione] came in with a DC50 of 2.77 nM and a Dmax of 63%. In assay [2], this compound returned a DC50 of 9.18 nM and a Dmax of 70.9%.

The values above are taken from patent publication US20230265116A1, “DEGRADATION OF (EGFR) BY CONJUGATION OF EGFR INHIBITORS WITH E3 LIGASE LIGAND AND METHODS OF USE” (BEIGENE, LTD., priority 2020, published 2023).
